These results are taken from patent US20040009921A1, “Methods and compositions for the treatment of cancer” (Allergan, Inc., priority 2002, published 2004).

One assay concerns the target T1, RXRα (Homo sapiens, UniProt P19793).
T1 construct: The RXRα coding region was amplified from this clone by PCR; expressed in transfected cells; host or cells: HEK293 (transient; CAT transfected with RXRα)
T1 sequence (P19793 1-462): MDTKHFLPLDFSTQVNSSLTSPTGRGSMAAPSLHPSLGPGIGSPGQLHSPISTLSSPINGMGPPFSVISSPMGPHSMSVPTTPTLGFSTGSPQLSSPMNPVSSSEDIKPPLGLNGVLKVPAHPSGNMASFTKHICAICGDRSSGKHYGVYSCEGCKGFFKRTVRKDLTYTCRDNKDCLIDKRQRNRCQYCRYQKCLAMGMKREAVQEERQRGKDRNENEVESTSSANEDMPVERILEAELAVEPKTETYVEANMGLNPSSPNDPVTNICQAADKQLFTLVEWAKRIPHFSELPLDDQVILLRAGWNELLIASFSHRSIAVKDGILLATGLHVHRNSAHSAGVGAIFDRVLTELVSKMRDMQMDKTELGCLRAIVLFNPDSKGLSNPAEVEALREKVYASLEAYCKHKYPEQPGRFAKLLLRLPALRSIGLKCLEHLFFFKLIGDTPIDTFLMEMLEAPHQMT
The experiment in a line: Western blotting of RXRα protein in HEK293 cells and stable lines. In kind it is cell-based. As for the experimental part:
(§1) (A) Western blotting analysis of HEK293 cells transfected with a combination of expression vectors for LacZ (2 μg), V5-tagged β-catenin(4 μg), and Flag-tagged RXRα (2 μg) as indicated below the gels. […] RXRα protein was measured using an HRP-conjugated mouse monoclonal antibody against the Flag tag. (B) Western blotting analysis of stable cell line RBC that overexpresses both β-catenin and RXRα. […] (C) Western blotting analysis of stable cell line CAT that overexpresses only β-catenin. […] Endogenous and overexpressed β-catenin were detected using a rabbit polyclonal antibody as indicated by “Total” whereas overexpressed β-catenin was analyzed using a mouse monoclonal antibody against the V5 tag. Endogenous and overexpressed RXRα were detected by a rabbit polyclonal antibody against RXRα, whereas overexpressed RXRα was determined by an HRP-conjugated mouse monoclonal antibody against the Flag tag. (D) Western blotting analysis of HEK293 cells transfected with a fixed amount of β-catenin (4 μg) plus an increasing amount of RXRα as indicated at the top. […] (E) Western blotting analysis of HEK293, CV-1, and Hela cells transfected with 2 μg of RXRα and 4 μg of wild type or mutant β-catenin. α. […] (F) Northern blotting analysis of RBC cells using β-catenin as a probe.
(§2) FIG. 4 Receptor and ligand specificity in degradation of β-catenin by retinoid receptors. HEK293 cells transfected with expression vectors for β-catenin (4 μg) and RXRs (2 μg) or RARs (2 μg) and treated with ligands at concentrations indicated at the top of each gel. Protein levels were detected by Western blotting as shown in this figure. β-catenin and RARs were detected by HRP-conjugated antibodies against their V5 tag. RXRs were detected by HRP-conjugated antibodies against their Flag tag. […] In this experiment, the amount of expression vectors for RXRα and RARs used in transfection was 1 μg.
(§3) HEK293 cells were seeded at a density of […] per dish were seeded into 100-mm dishes and cultured overnight in DMEM containing 10% FBS. Cells were transfected with 1-4 μg of various cDNA or parental expression vectors (8 μg of DNA in total) using Lipofectamine®. Five hours after transfection, cells were fed with fresh culture media DMEM containing 10% charcoal-treated FBS with vehicle DMSO or retinoids prepared in DMSO. After a given time of treatment, cells were harvested and lysed in a buffer containing 1% Nonidet® P-40, 30 mM Tris-HCl (pH7.4), 0.5 mM EDTA (pH 8.0), 150 mM NaCl, 10% glycerol, 1 mM sodium orthovanadate, 40 mM NaF, 0.5 mM phenylmethylsulfonyl fluoride (PMSF) and a cocktail of protease inhibitors (Merck).
(§4) Total cell lysates were homogenized by passing through a QIAshredder® (Qiagen) and cleared from insoluble materials by centriftigation at 12,000 g. Protein concentration was determined using a Bradford total protein assay kit (Bio-Rad). Total cell lysates were electrophoresed using a 4-12% SDS-PAGE gradient gel and transferred to either nitrocellulose or PVDF filter membranes. The membranes were blocked with 10% non-fat milk reconstituted from dairy milk powder in phosphate-buffered saline (PBS) containing 0.1% Tween®-20 (PBST). The membranes were incubated with primary antibodies at room temperature for 2 hours or at 4° C. for overnight. After the removal of unbound antibodies, membranes were incubated with horseradish peroxidase-conjugated secondary antibodies for one hour at room temperature and washed five times with PBST.

The next assay concerns β-catenin mRNA. The experiment in a line: Northern blotting of β-catenin mRNA in RBC cells. In kind it is cell-based, human. Particulars: RBC cells treated overnight (17 hours). As for the experimental part: as §1
The subject of another assay is β-catenin. Put plainly: Western blotting of β-catenin protein in HEK293 cells and stable lines RBC, CAT, RmBC. In kind it is cell-based, human. As for the experimental part: as §1, §2, §3, §4
In general terms: Immunoblotting shows a protein as a band on a membrane.

The next assay concerns β-galactosidase. The experiment in a line: Western blotting of β-galactosidase control (LacZ) in HEK293 cells. In kind it is cell-based. The settings on record: HEK293 cotransfected with LacZ, 0.1 μM.
The mark [1] stands for this setting: HEK293 co-expressing RXRα with RARα.
[2] abbreviates: HEK293 transfected with β-catenin and RXRα, 17 hours.

Description for β-galactosidase: (A) Western blotting analysis of HEK293 cells transfected with a combination of expression vectors for LacZ (2 μg), V5-tagged β-catenin(4 μg), and Flag-tagged RXRα (2 μg) as indicated below the gels. […] RXRα protein was measured using an HRP-conjugated mouse monoclonal antibody against the Flag tag. […] Endogenous and overexpressed β-catenin were detected using a rabbit polyclonal antibody as indicated by “Total” whereas overexpressed β-catenin was analyzed using a mouse monoclonal antibody against the V5 tag. Endogenous and overexpressed RXRα were detected by a rabbit polyclonal antibody against RXRα, whereas overexpressed RXRα was determined by an HRP-conjugated mouse monoclonal antibody against the Flag tag. (D) Western blotting analysis of HEK293 cells transfected with a fixed amount of β-catenin (4 μg) plus an increasing amount of RXRα as indicated at the top.
HEK293 cells were seeded at a density of 2×10 per dish were seeded into 100-mm dishes and cultured overnight in DMEM containing 10% FBS. Cells were transfected with 1-4 μg of various cDNA or parental expression vectors (8 μg of DNA in total) using Lipofectamine®. […]
Total cell lysates were homogenized by passing through a QIAshredder® (Qiagen) and cleared from insoluble materials by centriftigation at 12,000 g. Protein concentration was determined using a Bradford total protein assay kit (Bio-Rad). […]

Turning to `CC(/C=C/[C@@H]1C[C@]1(C)c1ccc2c(c1)C(C)(C)CCC2(C)C)=C\C(=O)O` [AGN 4204], the “endogenous RXRα protein” value on RXRα (CAT cells, 0.1 μM, 17 hours) is “a decrease of the endogenous RXRα was observed”. Besides, on RXRα (HEK293, independent of β-catenin, 0.1 μM), the “amount of RXRα protein” value was “a reduction inn the amount of RXRα”. On RXRα (setting [1]), the “degradation of RXRα” value is listed as “RXR-ligand-dependent degradation”. Further, the “concentration effective in inducing degradation of RXRα” value on RXRα (setting [2]) is given as 1 nM. Moreover, at RXRα (RBC cells, 0.1 μM), the “time at which degradation of RXRα was first detected” value was 1 h. In addition, in the assay with β-catenin mRNA, the “β-catenin mRNA level” value was “no effects”. Besides, the β-catenin protein result is reported as “significantly reduced” in the assay on β-catenin (CAT cells transfected with RXRα expression vector, 0.1 μM, 17 hours); “did not cause a significant decrease of β-catenin” with β-catenin (CAT cells, low endogenous RXRα, 0.1 μM, 17 hours); “a proportional decrease in β-catenin” in the assay with β-catenin (HEK293, fixed β-catenin plus increasing amounts of RXRα vector, 0.1 μM, 17 hours). For the same compound, the “intracellular β-catenin protein levels” value with β-catenin (HEK293, β-catenin alone overexpressed, 0.1 μM, 6 or 15 hours) is given as “no significant effects”. Moreover, the “degradation of β-catenin” value with β-catenin (setting [1]) is given as “RXR-ligand-dependent degradation”; with β-catenin (HEK293 overexpressing RARβ or RARγ), “did not result in degradation of β-catenin”. In the assay on β-catenin (HEK293 co-overexpressing β-catenin and RXR, 0.1 μM, 6 or 15 hours), the “amounts of β-catenin protein” value is recorded as “a reduction in the amounts of β-catenin protein”. Moreover, in the assay on β-catenin (setting [2]), the “concentration effective in inducing degradation of β-catenin” value worked out at 1 nM. The “degradation of β-catenin through RXRγ” value in the assay with β-catenin (HEK293 transfected with β-catenin and RXRγ) is given as “able to stimulated the degradation of β-catenin through RXRγ”. Moreover, in the assay on β-catenin (HEK293 with β-catenin and RXRα mutants, 0.1 μM, 17 hours), the “AGN 4204-induced β-catenin degradation mediated by RXRα deletion mutants” value is on record as “significantly reduced”. The “potency in inducing β-catenin degradation” value with β-catenin (HEK293 with β-catenin and RXRα, FIG. 4A) is on record as “high potency”. In addition, in the assay with β-catenin (RBC cells, 0.1 μM), the “time at which beginning of β-catenin degradation was observed” value came to 6 h. In the assay with β-catenin (transiently transfected HEK293 and stable line RmBC (ΔNβ-catenin and RXRα), 0.1 μM), the “degradation of ΔNβ-catenin protein” value is on record as “degradation of αNβ-catenin was observed”. Also, the “expression of β-galactosidase protein from LacZ control” value in the assay with β-galactosidase was “not significantly affected”.
